Measured values: the supplement of paper PMC10307832

Columns and labels:
Assay in all cases: relative viability (nuclei count vs DMSO), 5 days (fraction); higher = more cells survive
QS11 + Luminespib = compound: C1CC2=C(C1)C=C(C=C2)OC3=NC(=C4C(=N3)N(C=N4)CC5=CC=C(C=C5)C6=CC=CC=C6)N[C@@H](CC7=CC=CC=C7)CO [QS11] + CCNC(=O)c1noc(-c2cc(C(C)C)c(O)cc2O)c1-c1ccc(CN2CCOCC2)cc1 [Luminespib] (partner 0.01 µM)
Method in brief: (§1)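 Relative viability divides the nuclei count in treated wells by that in vehicle wells. Lung cancer cell lines were seeded in 1536-well plates, dosed by pin tool the next day, and fixed and stained after 5 days in one step with final 0.05% Triton X-100, 1% formaldehyde and 1 ug/ml Hoechst. Dosing was a single drug or a fixed anchor-drug dose plus five library-drug doses (not always all listed) in √10 steps, and values are medians of duplicate plates imaged at 4×.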

AZ628 + Luminespib = compound: CC1=C(C=C(C=C1)NC(=O)C2=CC(=CC=C2)C(C)(C)C#N)NC3=CC4=C(C=C3)N=CN(C4=O)C [AZ628] + CCNC(=O)c1noc(-c2cc(C(C)C)c(O)cc2O)c1-c1ccc(CN2CCOCC2)cc1 [Luminespib] (partner 0.01 µM)
Method in brief: as §1

AZ628 + Phenformin = compound: CC1=C(C=C(C=C1)NC(=O)C2=CC(=CC=C2)C(C)(C)C#N)NC3=CC4=C(C=C3)N=CN(C4=O)C [AZ628] + N=C(N)NC(=N)NCCc1ccccc1 [Phenformin] (partner 250 µM)
Method in brief: as §1

Darinaparsin + Dasatinib = compound: C[As](C)SC[C@H](NC(=O)CC[C@H](N)C(=O)O)C(=O)NCC(=O)O [Darinaparsin] + Cc1nc(Nc2ncc(C(=O)Nc3c(C)cccc3Cl)s2)cc(N2CCN(CCO)CC2)n1 [Dasatinib] (partner 0.075 µM)
Method in brief: as §1

## LCLC-97TM1
QS11 + Luminespib; first compound 0.08 µM
  relative viability: 0.709
QS11 + Luminespib; first compound 0.253 µM
  relative viability: 0.907
QS11 + Luminespib; first compound 2.53 µM
  relative viability: 0.768
QS11 + Luminespib; first compound 8 µM
  relative viability: 0.69
AZ628 + Luminespib; first compound 0.08 µM
  relative viability: 0.804
AZ628 + Luminespib; first compound 0.253 µM
  relative viability: 0.659
AZ628 + Luminespib; first compound 0.8 µM
  relative viability: 0.642
AZ628 + Luminespib; first compound 2.53 µM
  relative viability: 0.464
AZ628 + Luminespib; first compound 8 µM
  relative viability: 0.287
AZ628 + Phenformin; first compound 0.08 µM
  relative viability: 0.55
AZ628 + Phenformin; first compound 0.253 µM
  relative viability: 0.459
AZ628 + Phenformin; first compound 0.8 µM
  relative viability: 0.421
AZ628 + Phenformin; first compound 2.53 µM
  relative viability: 0.457
AZ628 + Phenformin; first compound 8 µM
  relative viability: 0.308
Darinaparsin + Dasatinib; first compound 0.08 µM
  relative viability: 0.922
Darinaparsin + Dasatinib; first compound 0.8 µM
  relative viability: 0.664
Darinaparsin + Dasatinib; first compound 2.53 µM
  relative viability: 0.615
Darinaparsin + Dasatinib; first compound 8 µM
  relative viability: 0.98
